Data from patent publication US9067894B1, “Compound, composition, and method of activating GIRK potassium channel and use of same for treating conditions of interest” (Vanderbilt University, priority 2013, dated 2015).
Values after ≈ are worked out from the molar mass of the structure shown. “Also recorded” adds a separate entry of the source.

What was measured:
GIRK2 = target: T1, GIRK2 (Homo sapiens, UniProt P48051); assay: Thallium flux assay, HEK-293 cells expressing GIRK2 alone; type: cell-based; conditions: cell line GIRK2
T1 construct: expressed in transfected cells; host or cells: HEK-293
T1 sequence (P48051 1-423): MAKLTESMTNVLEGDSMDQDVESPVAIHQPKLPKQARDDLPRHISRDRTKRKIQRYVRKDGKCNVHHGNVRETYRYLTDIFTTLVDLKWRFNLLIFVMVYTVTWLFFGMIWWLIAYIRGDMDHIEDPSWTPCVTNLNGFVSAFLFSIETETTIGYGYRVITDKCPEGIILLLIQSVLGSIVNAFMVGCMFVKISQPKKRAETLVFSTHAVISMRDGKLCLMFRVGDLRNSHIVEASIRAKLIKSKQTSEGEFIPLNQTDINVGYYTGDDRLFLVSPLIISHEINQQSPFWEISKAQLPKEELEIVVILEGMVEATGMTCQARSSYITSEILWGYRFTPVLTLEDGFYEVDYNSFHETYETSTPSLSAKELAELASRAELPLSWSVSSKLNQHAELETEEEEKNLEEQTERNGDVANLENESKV
From the text: (§1) Cell Line Construction and Cell Culture. HEK-293 cells co-expressing human GIRK1/2 and rat mGlu8 were generated as previously described (Niswender et al., 2008). A HEK-293 cell line (ATCC, Manassas, Va.) expressing human GIRK1 and human GIRK2 was constructed by transfecting HEK-293 cells with GIRK1 and GIRK2 (Origene, Rockville, Md.) cloned into the pBudCE4.1 vector (Life Technologies, Carlsbad, Calif.) using FuGene 6 (Promega, Madison, Wis.) transfection reagent. Unless otherwise noted, other ion channel-expressing cells were prepared by transfecting HEK-293 cells with individual or combinations of subunits: GIRK1, pCMV6-A-BSD; GIRK2, pCMV6-A-puro; GIRK3, pCMV6-A-hygro; GIRK4, pCMV6-A-AC; Kv7.4, pIRESneo3. The Kir2.1 and hERG-expressing cell lines were made by transfecting T-REx-293 cells (Life Technologies, Carlsbad, Calif.) with Kir2.1 and Kv11.1, respectively, cloned into pcDNA5TO. Monoclonal cell lines were produced by limiting-dilution cloning of antibiotic-resistant cells and functional selection using the thallium flux assay described below. Unless otherwise noted, cells were maintained in Minimal Essential Medium, Alpha Medium (Mediatech, Manassas, Va.) supplemented with 10% fetal bovine serum (Sigma-Aldrich, Saint Louis, Mo.) and GlutaGro (Mediatech, Manassas, Va.), referred to henceforth as cell culture medium. […]

GIRK2/3 = target: T2, GIRK2/3 (Homo sapiens, UniProt P48051+Q92806); assay: Thallium flux assay, HEK-293 cells expressing GIRK2/3; type: cell-based; conditions: cell line GIRK2-3
T2 construct: expressed in transfected cells; host or cells: HEK-293
T2 sequence (P48051 1-423): T1 sequence (P48051 1-423)
T2 sequence (Q92806 1-393): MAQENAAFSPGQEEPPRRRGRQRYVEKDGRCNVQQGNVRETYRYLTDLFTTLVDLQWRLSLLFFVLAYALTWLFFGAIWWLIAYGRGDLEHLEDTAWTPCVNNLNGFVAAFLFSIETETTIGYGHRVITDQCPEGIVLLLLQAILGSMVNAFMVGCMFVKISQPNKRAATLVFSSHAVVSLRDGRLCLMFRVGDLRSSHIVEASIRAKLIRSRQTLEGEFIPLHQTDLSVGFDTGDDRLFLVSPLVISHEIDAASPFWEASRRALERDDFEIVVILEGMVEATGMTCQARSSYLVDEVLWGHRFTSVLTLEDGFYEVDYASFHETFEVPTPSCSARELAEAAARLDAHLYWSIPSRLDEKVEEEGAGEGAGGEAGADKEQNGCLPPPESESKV
From the text: as §1

Solubility = type: physicochemical
Adrenergic β2 = target: T3, Adrenergic β2 (Homo sapiens, UniProt P07550); assay: Radioligand displacement (Ricerca); type: binding
T3 construct: Ricerca

Andreogen = target: T4, Andreogen (Rattus norvegicus, UniProt P15207); assay: Radioligand displacement (Ricerca); type: binding
T4 construct: Ricerca

[1] = system: L-Type Ca channel (benzothiazepine); assay: Radioligand displacement (Ricerca); type: binding, rat; conditions: 10 μM
N-Type Ca channel = target: T5, N-Type Ca channel (Rattus norvegicus, UniProt Q02294); assay: Radioligand displacement (Ricerca); type: binding
T5 construct: Ricerca

GABAB1A = target: T6, GABAB1A (Homo sapiens, UniProt Q9UBS5); assay: Radioligand displacement (Ricerca); type: binding
T6 construct: Ricerca

Nicotinic acetylcholine = assay: Radioligand displacement (Ricerca), first nicotinic entry; type: binding, human; conditions: 10 μM; first Nicotinic acetylcholine line
Transporter, DAT = target: T7, Transporter, DAT (Homo sapiens, UniProt Q01959); assay: Radioligand displacement (Ricerca); type: binding
T7 construct: Ricerca (contract panel)
T7 sequence (Q01959 whole entry): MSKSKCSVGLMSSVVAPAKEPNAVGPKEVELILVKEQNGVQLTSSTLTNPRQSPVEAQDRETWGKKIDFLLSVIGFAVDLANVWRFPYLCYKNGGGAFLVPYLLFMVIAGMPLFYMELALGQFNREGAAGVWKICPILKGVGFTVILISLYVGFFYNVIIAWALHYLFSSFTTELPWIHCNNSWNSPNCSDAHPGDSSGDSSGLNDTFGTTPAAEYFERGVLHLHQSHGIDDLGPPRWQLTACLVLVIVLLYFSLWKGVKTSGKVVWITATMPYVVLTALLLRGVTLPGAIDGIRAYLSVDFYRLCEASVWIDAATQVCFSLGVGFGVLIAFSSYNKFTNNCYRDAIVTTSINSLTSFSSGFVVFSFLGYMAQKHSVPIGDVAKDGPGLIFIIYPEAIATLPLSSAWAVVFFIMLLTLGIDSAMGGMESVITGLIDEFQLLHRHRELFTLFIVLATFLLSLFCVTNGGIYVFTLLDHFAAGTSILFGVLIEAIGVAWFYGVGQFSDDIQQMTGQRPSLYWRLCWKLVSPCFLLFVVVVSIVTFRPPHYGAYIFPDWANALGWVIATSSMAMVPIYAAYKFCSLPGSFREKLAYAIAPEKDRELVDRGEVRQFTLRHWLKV

T5 sequence (Q02294 whole entry): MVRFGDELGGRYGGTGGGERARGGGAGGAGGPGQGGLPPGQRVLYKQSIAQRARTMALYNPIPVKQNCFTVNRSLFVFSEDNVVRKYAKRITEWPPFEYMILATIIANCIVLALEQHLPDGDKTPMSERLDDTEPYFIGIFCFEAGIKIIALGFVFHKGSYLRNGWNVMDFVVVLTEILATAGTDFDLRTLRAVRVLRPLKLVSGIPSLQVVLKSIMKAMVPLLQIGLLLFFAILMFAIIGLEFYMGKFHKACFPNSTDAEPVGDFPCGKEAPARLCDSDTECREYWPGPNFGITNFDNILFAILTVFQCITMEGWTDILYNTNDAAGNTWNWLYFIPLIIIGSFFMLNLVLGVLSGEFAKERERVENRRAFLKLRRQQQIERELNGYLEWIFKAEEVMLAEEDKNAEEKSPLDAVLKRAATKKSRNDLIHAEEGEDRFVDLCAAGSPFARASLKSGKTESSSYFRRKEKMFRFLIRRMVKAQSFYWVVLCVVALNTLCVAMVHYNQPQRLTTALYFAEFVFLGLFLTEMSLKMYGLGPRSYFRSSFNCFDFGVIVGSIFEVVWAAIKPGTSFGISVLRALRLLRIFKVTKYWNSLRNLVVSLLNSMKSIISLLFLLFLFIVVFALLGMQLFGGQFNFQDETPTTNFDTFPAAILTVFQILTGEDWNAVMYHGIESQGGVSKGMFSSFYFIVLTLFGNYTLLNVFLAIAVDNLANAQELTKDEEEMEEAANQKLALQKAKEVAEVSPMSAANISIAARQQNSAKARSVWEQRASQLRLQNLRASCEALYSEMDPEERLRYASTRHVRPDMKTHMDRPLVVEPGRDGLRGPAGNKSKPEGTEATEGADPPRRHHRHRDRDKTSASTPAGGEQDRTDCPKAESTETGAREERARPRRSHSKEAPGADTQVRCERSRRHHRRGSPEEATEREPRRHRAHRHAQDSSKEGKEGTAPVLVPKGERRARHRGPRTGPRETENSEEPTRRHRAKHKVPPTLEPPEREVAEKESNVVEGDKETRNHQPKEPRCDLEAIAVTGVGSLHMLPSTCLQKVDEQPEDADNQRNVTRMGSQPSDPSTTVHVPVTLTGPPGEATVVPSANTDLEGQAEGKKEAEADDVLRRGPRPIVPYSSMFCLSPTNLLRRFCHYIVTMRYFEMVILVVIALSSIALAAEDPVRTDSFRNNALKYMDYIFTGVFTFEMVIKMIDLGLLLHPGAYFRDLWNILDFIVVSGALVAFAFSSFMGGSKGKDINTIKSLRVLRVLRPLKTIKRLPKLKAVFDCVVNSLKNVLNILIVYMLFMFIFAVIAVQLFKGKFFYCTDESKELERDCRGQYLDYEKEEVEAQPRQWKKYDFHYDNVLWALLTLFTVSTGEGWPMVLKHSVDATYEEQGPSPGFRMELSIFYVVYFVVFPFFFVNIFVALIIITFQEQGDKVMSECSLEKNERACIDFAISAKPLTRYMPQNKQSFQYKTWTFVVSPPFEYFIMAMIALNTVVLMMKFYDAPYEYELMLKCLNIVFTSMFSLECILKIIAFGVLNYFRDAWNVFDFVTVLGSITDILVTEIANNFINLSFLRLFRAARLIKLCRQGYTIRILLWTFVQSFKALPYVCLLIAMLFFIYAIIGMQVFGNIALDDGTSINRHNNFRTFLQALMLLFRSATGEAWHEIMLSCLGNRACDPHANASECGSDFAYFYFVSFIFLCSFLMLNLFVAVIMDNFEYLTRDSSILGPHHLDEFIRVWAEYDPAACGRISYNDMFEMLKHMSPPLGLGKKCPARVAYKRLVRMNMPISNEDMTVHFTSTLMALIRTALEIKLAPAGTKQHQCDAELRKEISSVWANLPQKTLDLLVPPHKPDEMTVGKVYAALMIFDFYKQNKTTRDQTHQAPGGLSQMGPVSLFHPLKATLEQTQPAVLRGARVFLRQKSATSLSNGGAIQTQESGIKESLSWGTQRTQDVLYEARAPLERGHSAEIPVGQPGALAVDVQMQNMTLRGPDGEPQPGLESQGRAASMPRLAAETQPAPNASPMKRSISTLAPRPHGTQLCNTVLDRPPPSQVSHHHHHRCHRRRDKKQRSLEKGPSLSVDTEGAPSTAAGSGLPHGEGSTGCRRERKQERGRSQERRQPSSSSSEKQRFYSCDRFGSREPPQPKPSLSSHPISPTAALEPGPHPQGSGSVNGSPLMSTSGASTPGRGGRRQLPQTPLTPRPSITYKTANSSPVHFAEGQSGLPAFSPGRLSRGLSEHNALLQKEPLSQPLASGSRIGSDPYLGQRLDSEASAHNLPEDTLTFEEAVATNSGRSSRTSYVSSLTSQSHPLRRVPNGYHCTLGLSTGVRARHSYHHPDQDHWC
T3 sequence (P07550 whole entry): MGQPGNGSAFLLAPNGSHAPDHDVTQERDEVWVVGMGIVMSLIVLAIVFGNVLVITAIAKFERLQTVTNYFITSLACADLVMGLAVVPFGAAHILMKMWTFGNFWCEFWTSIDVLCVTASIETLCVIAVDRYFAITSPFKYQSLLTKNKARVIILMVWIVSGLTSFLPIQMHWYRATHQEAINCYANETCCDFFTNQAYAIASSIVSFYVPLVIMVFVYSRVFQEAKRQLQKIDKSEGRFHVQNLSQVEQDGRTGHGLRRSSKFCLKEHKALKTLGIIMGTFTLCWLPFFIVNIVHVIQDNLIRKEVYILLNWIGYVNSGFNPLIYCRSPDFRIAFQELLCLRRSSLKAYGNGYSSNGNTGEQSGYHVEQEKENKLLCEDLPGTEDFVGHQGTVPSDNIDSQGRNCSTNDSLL
T6 sequence (Q9UBS5 15-961 limits assumed): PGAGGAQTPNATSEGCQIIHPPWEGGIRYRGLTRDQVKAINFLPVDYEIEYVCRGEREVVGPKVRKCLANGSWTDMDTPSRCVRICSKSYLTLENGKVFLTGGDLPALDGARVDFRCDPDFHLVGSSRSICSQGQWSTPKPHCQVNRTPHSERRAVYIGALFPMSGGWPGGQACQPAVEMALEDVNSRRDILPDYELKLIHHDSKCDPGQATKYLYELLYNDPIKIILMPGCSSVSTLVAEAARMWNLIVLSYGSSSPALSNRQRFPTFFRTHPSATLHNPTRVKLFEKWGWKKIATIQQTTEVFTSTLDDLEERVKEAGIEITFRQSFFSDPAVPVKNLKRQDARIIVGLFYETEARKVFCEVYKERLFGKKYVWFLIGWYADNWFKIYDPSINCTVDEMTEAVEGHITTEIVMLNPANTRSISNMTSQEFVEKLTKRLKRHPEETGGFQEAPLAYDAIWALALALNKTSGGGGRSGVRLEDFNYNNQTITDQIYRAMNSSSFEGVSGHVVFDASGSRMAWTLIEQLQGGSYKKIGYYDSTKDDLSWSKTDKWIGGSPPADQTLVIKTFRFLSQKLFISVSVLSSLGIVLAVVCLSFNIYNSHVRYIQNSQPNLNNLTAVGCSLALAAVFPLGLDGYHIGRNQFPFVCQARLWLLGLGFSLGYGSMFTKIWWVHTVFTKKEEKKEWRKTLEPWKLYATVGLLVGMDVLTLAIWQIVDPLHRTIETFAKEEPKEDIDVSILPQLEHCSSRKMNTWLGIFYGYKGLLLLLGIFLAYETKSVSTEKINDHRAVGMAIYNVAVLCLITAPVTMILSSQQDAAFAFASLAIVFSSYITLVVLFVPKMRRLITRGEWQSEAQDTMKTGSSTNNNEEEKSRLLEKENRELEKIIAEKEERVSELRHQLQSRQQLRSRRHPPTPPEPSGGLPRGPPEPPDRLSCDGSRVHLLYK

For `Cc1cc(NC(=O)Nc2ccc(F)c(F)c2)n(-c2ccccc2)n1` [VU0456810, 1-(3,4-difluorophenyl)-3-(3-methyl-1-phenyl-1H-pyrazol-5-yl)urea], the “EC50 Thallium Flux” value (GIRK2) was “complete inability to modulate; also recorded: Inactive”, the “EC50 Thallium Flux” value (GIRK2; listed as 2) was “inactive” and the “EC50 Thallium Flux” value (GIRK2/3) was “complete lack of efficacy; also recorded: Inactive”. For the same molecule, the “EC50 Thallium Flux” value (GIRK2/3; listed as 2) was “inactive”, the solubility (Solubility) was 17.5 µM (≈ 5.75 µg/mL) and the inhibition at 10 µM (Adrenergic β2) was -5%. The inhibition at 10 µM (Andreogen) was 0%, the “% Inhibition” value [1] was 1% and the inhibition at 10 µM (N-Type Ca channel) was 5%. The inhibition at 10 µM (GABAB1A) was 11%, the “% Inhibition” value (Nicotinic acetylcholine) was 0% and the inhibition at 10 µM (Transporter, DAT) was 12%.
